Active and inactive are the calls of the source. How the calls were made is not given here.
Tested on: GENE-TOX genotoxicity assays, various organisms and cells
Experiment: GENE-TOX mutagenicity studies
Conditions: for call: Assay Type: In vivo carcinogenicity studies
[1] = Species/Cell Type: Salmonella typhimurium (one or more of the five standard strains: TA98, TA100, TA1535, TA1537, and TA1538), Assay Type: Histidine reverse gene mutation, Ames assay, Assay Code: SAL+*, Activation: With metabolic activation, Evaluation Type: Evaluation A (Pre-1980)
[2] = Species/Cell Type: Syrian hamster embryo (SA7/SHE) cells, Assay Type: Cell transformation, viral enhanced, Assay Code: CT7+, Evaluation Type: Evaluation A (Pre-1980)
[3] = Species/Cell Type: Chinese hamster lung (V79) cells, Assay Type: Forward gene mutation at the HPRT or ouabain locus, Assay Code: V79+, Evaluation Type: Evaluation A (Pre-1980)
[4] = Species/Cell Type: Salmonella typhimurium (one or more of the five standard strains: TA98, TA100, TA1535, TA1537, and TA1538), Assay Type: Histidine reverse gene mutation, Ames assay, Assay Code: SAL+, Evaluation Type: Evaluation A (Pre-1980)
[5] = Species/Cell Type: Salmonella typhimurium (one or more of the five standard strains: TA98, TA100, TA1535, TA1537, and TA1538), Assay Type: Histidine reverse gene mutation, Ames assay, Assay Code: SALT, Evaluation Type: Evaluation A (Pre-1980)

## Nc1ccc(-c2ccc(N)cc2)cc1
Species/Cell Type: Drosophila melanogaster, Assay Type: Sex-linked recessive lethal gene mutation, Assay Code: SRL-, Evaluation Type: Evaluation A (Pre-1980)
  mutagenic call: inactive; negative
Species/Cell Type: Escherichia coli polA (W3119 vs P3478), Assay Type: Rec-assay, DNA effects (bacterial DNA repair), Assay Code: RE1T, Evaluation Type: Evaluation A (Pre-1980)
  mutagenic call: no conclusion
Species/Cell Type: Fischer rat embryo (RLV/1706) cells, Assay Type: Cell transformation, viral enhanced, Assay Code: CTR+, Evaluation Type: Evaluation A (Pre-1980)
  mutagenic call: active; positive
Species/Cell Type: Human diploid fibroblasts, Assay Type: Unscheduled DNA synthesis (UDS) in vitro, DNA effects, Assay Code: UDHT, Evaluation Type: Evaluation A (Pre-1980)
  mutagenic call: no conclusion
Species/Cell Type: Human, Assay Type: Sister-chromatid exchange (SCE) in vitro, Assay Code: SC1+D*, Activation: With metabolic activation, Dose Response: With dose response, Evaluation Type: Evaluation B (Post-1980)
  mutagenic call: active; positive
Species/Cell Type: Mammalian polychromatic erythrocytes, Assay Type: Micronucleus test, chromosome aberrations, Assay Code: MNT+, Evaluation Type: Evaluation A (Pre-1980)
  mutagenic call: active; positive
Species/Cell Type: Mouse embryo (AKR/ME) cells, Assay Type: Cell transformation, Assay Code: CTK+, Evaluation Type: Evaluation A (Pre-1980)
  mutagenic call: active; positive
Species/Cell Type: Mouse, Sex: Male, Assay Type: Sperm morphology, Assay Code: SPI-, Evaluation Type: Evaluation A (Pre-1980)
  mutagenic call: inactive; negative
Species/Cell Type: Nonhuman, Assay Code: CCG+, Evaluation Type: Evaluation A (Pre-1980)
  call: active; positive
Species/Cell Type: Nonhuman, Assay Type: Sister-chromatid exchange (SCE) in vitro, Assay Code: SC2+D*, Activation: With metabolic activation, Dose Response: With dose response, Evaluation Type: Evaluation B (Post-1980)
  mutagenic call: active; positive
Species/Cell Type: Nonhuman, Assay Type: Sister-chromatid exchange (SCE) in vivo, Assay Code: SC3+, Evaluation Type: Evaluation B (Post-1980)
  mutagenic call: active; positive
Species/Cell Type: Rat primary hepatocytes, Assay Type: Unscheduled DNA synthesis (UDS) in vitro, DNA effects, Assay Code: UDP+, Evaluation Type: Evaluation A (Pre-1980)
  mutagenic call: active; positive
[1]
  mutagenic call: active; positive
[2]
  mutagenic call: active; positive
Species/Cell Type: Syrian hamster embryo (SHE) cells, Assay Type: Cell transformation, clonal assay, Assay Code: CTC+, Evaluation Type: Evaluation A (Pre-1980)
  mutagenic call: active; positive
Species/Cell Type: Tradescantia species, Assay Type: Gene mutation, Assay Code: TRM+D, Dose Response: With dose response, Evaluation Type: Evaluation A (Pre-1980)
  mutagenic call: active; positive

## COc1cc(Cl)c(OC)cc1Cl
Species/Cell Type: Aspergillus nidulans, Assay Type: Aneuploidy, chromosome aberrations, Assay Code: ASN+, Evaluation Type: Evaluation A (Pre-1980)
  mutagenic call: active; positive
Species/Cell Type: Aspergillus nidulans, Assay Type: Mitotic recombination, Assay Code: ASG+, Evaluation Type: Evaluation A (Pre-1980)
  mutagenic call: active; positive

## CCN(CC)CCn1nc2c3c(c(CO)ccc31)Sc1ccccc1-2
Species/Cell Type: Drosophila melanogaster, Assay Type: Sex-linked recessive lethal gene mutation, Assay Code: SRLT, Evaluation Type: Evaluation A (Pre-1980)
  mutagenic call: no conclusion
Species/Cell Type: Mouse lymphoma (L5178Y) cells, Assay Type: Forward gene mutation at the thymidine kinase (TK) locus, chromosome aberrations, Assay Code: L51+, Evaluation Type: Evaluation A (Pre-1980)
  mutagenic call: active; positive
Species/Cell Type: Neurospora crassa, Assay Type: Forward gene mutation, Assay Code: NEF+, Evaluation Type: Evaluation A (Pre-1980)
  mutagenic call: active; positive

## [Cr]
Species/Cell Type: Nonhuman, Assay Code: CCGT, Evaluation Type: Evaluation A (Pre-1980)
  call: no conclusion

## O=C(O)CN(CC(=O)O)C1C[C@H]1N(CC(=O)O)CC(=O)O (stereo partly drawn)
[3]
  mutagenic call: active; positive

## c1cc2ccc3ccc(C4CO4)c4ccc(c1)c2c34 (stereo not drawn)
[4]
  mutagenic call: active; positive

## [Cl-].[Cl-].[Cl-].[Cl-].[Cl-].[Cl-].[Mo]
[2]
  mutagenic call: active; positive

## Cc1cc(NC(=O)C2=C(O)c3ccccc3S(=O)(=O)N2C)no1
Species/Cell Type: Human lymphocytes, Assay Type: Sister-chromatid exchange (SCE) in vivo, Assay Code: SCY+, Evaluation Type: Evaluation B (Post-1980)
  mutagenic call: active; positive

## CCCCCCCCCC(=O)OCCCN1CCN(C2Cc3ccccc3Sc3ccc(SC)cc32)CC1 (stereo not drawn)
Species/Cell Type: Rodents, Sex: Male, Assay Type: Dominant lethal test, Assay Code: DLT-, Evaluation Type: Evaluation A (Pre-1980)
  mutagenic call: inactive; negative

## O=c1[nH]c(=O)n([C@H]2C[C@H](O)[C@@H](CO)O2)cc1/C=C/I
Species/Cell Type: Human, Assay Type: Sister-chromatid exchange (SCE) in vitro, Assay Code: SC1+D, Dose Response: With dose response, Evaluation Type: Evaluation B (Post-1980)
  mutagenic call: active; positive

## CCCCCN(CCCC)N=O
[1]
  mutagenic call: active; positive

## C#Cc1cn([C@H]2C[C@H](O)[C@@H](CO)O2)c(=O)[nH]c1=O
Species/Cell Type: Human lymphocytes, Assay Type: Sister-chromatid exchange (SCE) in vitro, Assay Code: SCL+, Evaluation Type: Evaluation B (Post-1980)
  mutagenic call: active; positive
Species/Cell Type: Human, Assay Type: Sister-chromatid exchange (SCE) in vitro, Assay Code: SC1+, Evaluation Type: Evaluation B (Post-1980)
  mutagenic call: active; positive

## Oc1cc2cc3c(ccc4ccccc43)cc2c2ccccc12
[3]
  mutagenic call: active; positive
Species/Cell Type: Mouse prostate cells, Assay Type: Cell transformation, Assay Code: CTM-, Evaluation Type: Evaluation A (Pre-1980)
  mutagenic call: inactive; negative
Species/Cell Type: Syrian hamster embryo (SHE) cells, Assay Type: Cell transformation, clonal assay, Assay Code: CTCT, Evaluation Type: Evaluation A (Pre-1980)
  mutagenic call: no conclusion

## COc1ccc(-c2c(-c3ccc(OC)cc3)c3ccc(OC)cc3c3cc(OC)ccc23)cc1
[5]
  mutagenic call: no conclusion

## CCc1cc2c(c3ccc4ccccc4c13)CCC2=O
[1]
  mutagenic call: active; positive

## ClCc1c2ccccc2c(CCl)c2ccccc12
[4]
  mutagenic call: active; positive

## CCCCCN(CCCC(=O)O)N=O
[5]
  mutagenic call: no conclusion

Reference: PubChem BioAssay AID1259408 (Genetic Toxicology Data Bank (GENE-TOX), 2018)
